US20250101338A1, “BIOMASS DERIVED SURFACE-ACTIVE COMPOSITIONS AND PRODUCTS” (Cambridge Glycoscience Ltd, priority 2021, published 2025)

How the values were obtained:
Format in all cases: physicochemical
[1] = Emulsion formation with different oil-water ratios (Example 66); details: water-oil ratio 1:2.5, groundnut oil, 3.0 wt % composition
Protocol: The ability of inventive surface-active compositions to stabilize emulsions in different mass-ratios of vegetable oil and water was investigated. Mixtures of water, vegetable oil and inventive surface-active composition were prepared as per table below, by adding groundnut oil, water, and surface-active composition in the desired mass ratio. The mixtures were heated at 60 C in a homogenizer (stirring for 10 minutes at 800 rpm, then further homogenized at this speed and ambient temperature for 5 min). The visual appearance of each mixture was acknowledged. The mixtures were then treated by centrifugation at 1500 rpm for 5 mi and the visual appearance was again acknowledged.

[2] = Water in oil emulsion stability test (Example 65); details: 0.5 mL water with 2 wt % substance + 1.5 mL sunflower oil, vortex 30 s, visual inspection
Protocol: 0.5 mL deionized water containing 2 wt % of the stated inventive or comparative compound was added to 1.5 mL commercial, food-grade sunflower oil, in a sample vial. The vials were each agitated with a IKA Vortex mixture for 30 seconds. The vials were left to stand and inspected visually for emulsion quality after 5 minutes, 1 hour, 4 hours and finally 24 h (FIG. 14 and FIG. 15). […] The results also show an unexpected increase in emulsifying performance for the inventive compositions comprising oligosaccharide mixture-derived surface-active agents (such as example 4-6 compositions) compared with those derived from a single monomeric sugar (xylose) alone (such as example 12 and 13 compositions).

[3] = Lipophilic substances solubilization test, lemongrass oil (Example 71); details: 2 mL of 5 wt % aqueous solution, stepwise addition of 2.5 μL, duplicate
Protocol: After each addition, the sample was agitated with a vortex mixture for 60 s and left to stand for 5 min. If no heterogenous phase was observed visually, the oil was said to be fully soluble. If a heterogenous, immiscible biphasic or emulsion was visible, then the saturation limit for that surface-active component was said to have been exceeded. Each surface-active composition was tested in duplicate.

[4] = Flash foam generation test (Example 70); details: 20 mg in 4 mL deionized water (10 wt % [sic]), 2 mL shaken 30 s in 15 mL tube, duplicate average
Protocol: 20 mg of each surface-active composition for testing was dissolved in deionized water (4 mL) to give a 10 wt % solution, 2 mL was added to a 15 mL FALCON tube. Each falcon tube was secured in a holder before being vigorously shook for 30 seconds. The initial foam height and structure was noted. The foam height was then noted at 5 min, 10 min, 15 min, 30 min, 45 min, 1 hr and 2 hr after the initial measurement. The experiment was repeated in duplicate. Averaged results are depicted in table 5 and FIG. 11.

[5] = Critical micellular concentration determination (Example 78); details: deionized water
Protocol: Stock solutions were prepared of known weight concentration (range spanning 0.005 wt %-5.000 wt %) of inventive surface-active compositions (by solution of the appropriate weight of example composition in deionized water). For reference, the surface tension of deionized water in the absence of a surface-active composition is 73 mN. […] The surface tensions of the solutions at the concentration of the CMC were also noted. Results are shown in table 10 and graphical results are depicted in FIG. 22.

[6] = Dynamic foam tests (Example 69); details: 5 mL of 0.5 wt % aqueous solution, 40 cm^3 air bubbled at 17 cm^3/min
Protocol: The intensity and approximate decay-rate for the foaming behavior of the surface-active compositions in dilute aqueous solution was determined by dosing 5 mL of 0.5 wt % aqueous solution of surface-active composition to a vertically-aligned 50 m plastic serological pipette (“Stripette”). Air (40 cm^3) was bubbled through the surface-active composition solution at a rate of 17 cm^3/min via a syringe pump and the foam height upon complete addition of air recorded. The foam height was also recorded again 5 min after complete addition of air, 10 min after complete addition of air, 15 m after complete addition of air, 30 min after complete addition of air, 1 hour after complete addition of air and finally 2 hours after complete addition of air.

[7] = Aqueous solubility noted at preparation
Protocol: Solid N-decyl xylosylamine (7.6 g) was suspended in 2-propanol (60 mL) and triethylamine (2 equiv.) then acetic anhydride (1.6 equiv.) was added slowly. Stirring continued at ambient temperature for 10 h. Water (50 mL) was added, and the mixture stirred for 5 min. Dichloromethane (50 mL) was added and the phases separated. The aqueous phase was extracted with additional DCM. The combined organic phase washed with saturated aqueous NH4Cl solution, then the aqueous phase extracted with additional DCM. The combined organic phases were dried over anhydrous magnesium sulfate, filtered, then concentrated under reduced pressure to give a yellow oil. The oil was purified by FCC eluting with MeOH (2-15%) in DCM (120 g normal phase silica cartridge with wet loading). Fractions containing the product were combined and evaporated to dryness to give the desired product (4.1 g, 49%) as a yellow gum. LC-MS (Method A), Rt=1.69 min, [M+H]+=332.2. The gum product can be dissolved in water to form solutions of 50 wt % or greater.
The process was carried out in essentially the same manner as in Example 11 a) step (ii) but using the solid product of Example 11 reaction c) step (i) and the crude product was instead purified by FCC eluting with MeOH (2-13%) in DCM. There were obtained 1.4 g of cream gum product. LC-MS (Method A), Rt=1.87 min, [M+H]^+=360.5.

Visual interpretation of results, after centrifugation ([1]; 1500 rpm 5 min): Complete phase-separation | Visual interpretation of results, before centrifugation ([1]; homogenized at 60 C): Emulsion failed to form. | Time inspected by which the emulsion first appeared dispersed [2]: 24 h | Maximum volume of lemongrass oil solubilized [3]: 8.75 µL | Volume of foam after given time ([4]; 0 min): 8.3 cm^3 | Volume of foam after given time ([4]; 5 min): 4.8 cm^3 | Volume of foam after given time ([4]; 15 min): 2.5 cm^3 | Volume of foam after given time ([4]; 30 min): 2.3 cm^3 | Volume of foam after given time ([4]; 1 h): 2.0 cm^3 | Volume of foam after given time ([4]; 2 h): 2.0 cm^3 | Solution Surface tension at CMC [5]: 36 mN | CMC ([5]; from surface tension at 0.005-5.000 wt %): 0.04 wt % | Volume of foam after given time ([6]; 0 min): 36.0 cm^3 | Volume of foam after given time ([6]; 5 min): 2.0 cm^3 | Volume of foam after given time ([6]; 15 min): 2.0 cm^3 | Volume of foam after given time ([6]; 30 min): 2.0 cm^3 | Volume of foam after given time ([6]; 1 h): 2.0 cm^3 | Volume of foam after given time ([6]; 2 h): 2.0 cm^3 | Concentration of solutions formed in water ([7]; gum product dissolved in water): ≥ 50 wt % | Aqueous solubility (in words) ([7]; water, room temperature): excellent aqueous solubility
SMILES: CCCCCCCCCCN(C(C)=O)C1OC[C@@H](O)[C@H](O)[C@H]1O (some centres unmarked) [Example 11 composition, N-decyl N-acetyl xylosylamine]
